# Conditions: not given
Structure (SMILES),boiling point [°C],melting point [°C],log10 vapour pressure (mmHg),log10 Koc (L/kg),log10 Koa,log10 Henry constant (atm·m³/mol),ready biodegradability
CC=C(C)C(C)C(C)=O (stereo unspecified),154,–,–,–,–,–,–
CN(C)CCCNc1c2ccccc2nc2cccc([N+](=O)[O-])c12,–,134,–,–,–,–,–
COc1c(Cl)c(Cl)c(Cl)c(Cl)c1Cl,–,108,–,–,–,–,–
N#Cc1ccnc2ccccc12,242,104,–,–,–,–,–
C[N+](C)(C)CCCl.[Cl-],–,–,-7.12,–,–,–,–
N#Cc1c(F)c(F)c(C#N)c(F)c1F,–,198,–,–,–,–,–
CNC(=O)Oc1cccc(N=CN(C)C)c1,–,–,–,2.44,–,–,–
Brc1ccc(Oc2ccccc2Br)cc1,–,–,–,–,8.47,–,–
O=C=NS(=O)(=O)Cl,107,-44,–,–,–,–,–
COC(=O)CCCCC(=O)O,–,9,–,–,–,–,–
CC(=O)c1ccccc1O,218,5,–,–,–,–,–
C1=NN(c2ccccc2)CC1,273,52,–,–,–,–,–
O=C1CCCC1,130,-51.3,1.06,–,3.67,-5,–
CCCCCCCCCCCCCCCCCCCCCC(=O)O,–,81,–,–,–,–,–
CCN1CCCCC1,131,–,–,–,–,–,–
COc1ccc(C=O)c(C(=O)O)c1OC,–,150,–,–,–,–,–
C=CC[C@]1(O)CC[C@H]2[C@@H]3CCC4=CC(=O)CCC4=C3C=C[C@@]21C,–,120,–,–,–,–,–
CC(Cl)CCCCl (stereo unspecified),162,–,–,–,–,–,–
CC(=O)Nc1cc(NS(=O)(=O)C(F)(F)F)c(C)cc1C,–,184,–,2.3,–,–,–
CC(=O)CC1CCCCN1 (stereo unspecified),195,–,–,–,–,–,–
CN(Cc1cc(Br)cc(Br)c1N)C1CCCCC1,–,238,–,–,–,–,–
Nc1c(F)c(F)c(C(F)(F)F)c(F)c1F,186,–,–,–,–,–,–
OCCCCCCCCCCO,–,74,–,–,–,–,–
FC(F)(F)I,-22.5,–,–,–,–,–,–
CC(C)CC(C)Nc1ccc(Nc2ccccc2)cc1 (stereo unspecified),–,–,–,–,–,–,not readily biodegradable
Clc1c(Cl)c(Cl)c2c(oc3ccccc32)c1Cl,–,169,–,–,–,–,–

Structure (SMILES),boiling point [°C],melting point [°C],log10 vapour pressure (mmHg),log10 Koc (L/kg),log10 Koa,log10 Henry constant (atm·m³/mol),ready biodegradability
N#Cc1c2ccccc2cc2ccccc12,–,175,–,–,–,–,–
Clc1ccc2c(c1)Oc1cc(Cl)c(Cl)c(Cl)c1O2,–,172,-8.12,–,–,-5.12,–
O=[N+]([O-])c1cccc(Br)c1,256,56,-1.15,–,–,–,–
Clc1ccc(Cl)c(-c2c(Cl)cccc2Cl)c1,–,–,-4.65,–,8.45,–,–
C=C(C)C(=O)C(=CC(=O)O)OC,–,83,–,–,–,–,–
Cc1cc(C)c(O)cc1C,232,72,-2.17,–,–,–,–
C1CCCCCCCCC1,202,10,-0.252,–,–,–,–
CCOC=Nc1ccccc1,214,–,–,–,–,–,–
C[C@@H](N)C(=O)O,–,292,–,–,–,–,–
CCCCCCC(C)CCCCCC,–,-37.2,–,–,–,–,–
C=COCCC,65,–,–,–,–,–,–
OC1CCCCCCCCCCC1,–,77.5,–,–,–,-5.53,–
O=C(Cl)C1CCCCC1,180,–,–,–,–,–,–
Cc1cnc(Cl)nc1Cl,235,26,–,–,–,–,–
CC(=O)CC(C)C,116,-84,1.3,–,–,–,readily biodegradable
CN1CC=C(c2ccccc2)CC1,–,40,–,–,–,–,–
CCCCOCCOC(=O)CCCOc1ccc(Cl)cc1Cl,–,–,–,2.7,–,–,–
CCOC(=O)C(C)C(=O)OCC,201,–,–,–,–,–,–
CCCNC(C)C(=O)Nc1ccccc1C (stereo unspecified),–,37.5,–,–,–,–,–
COc1ccc(NC(C)=O)cc1Cl,–,–,–,1.95,–,–,–
COc1ccc(C=O)cc1,248,0,-1.48,–,–,–,readily biodegradable
O=[N+]([O-])c1ccc2ccccc2c1,314,79,–,–,–,–,–
CCCCCCCCCCCCCC1CCCCC1,346,18.5,-5.04,–,–,–,–
CCO[SiH](OCC)OCC,134,–,–,–,–,–,–
O=C(O)CSCc1ccccc1,–,61,–,–,–,–,–
CC(C)CC(C)O (stereo unspecified),132,-90,0.724,–,–,-4.35,readily biodegradable

Structure (SMILES),boiling point [°C],melting point [°C],log10 vapour pressure (mmHg),log10 Koc (L/kg),log10 Koa,log10 Henry constant (atm·m³/mol),ready biodegradability
COc1c(OC)c(OC(C)=O)c2cc(Cl)ccc2c1OC(C)=O,–,91.5,–,–,–,–,–
C=CCNCC=C,111,-88.4,1.31,–,–,–,–
C[C@]12CCC(=O)C(O)=C1CC[C@@H]1[C@@H]2CC[C@@]2(C)[C@H]1CC[C@]2(C)O,–,170,–,–,–,–,–
BrCC(CBr)(CBr)CBr,306,163,–,–,–,–,not readily biodegradable
CCSC(=O)N1CCCCCC1,–,–,-2.25,1.92,–,-5.39,–
CCOC(=O)C(O)(c1ccccc1)c1ccccc1,–,34,–,–,–,–,–
CC=CCCc1ccccn1,216,–,–,–,–,–,–
O=C1CN(N=Cc2ccc(-c3ccc([N+](=O)[O-])cc3)o2)C(=O)N1,–,280,–,–,–,–,–
CCNc1nc(NC(C)(C)C)nc(OC)n1,–,124,-5.7,–,–,–,–
N#CCCOc1cccc2ccccc12,–,64,–,–,–,–,–
c1ccc2c(c1)OCCOCCOc1ccccc1OCCOCCO2,–,163,–,–,–,–,–
CCNC(C)C,69.6,–,–,–,–,–,–
Clc1cc(Cl)c(-c2c(Cl)cc(Cl)c(Cl)c2Cl)cc1Cl,–,83,–,–,–,–,–
O=C(NC(=O)c1c(F)cccc1F)Nc1ccc(Cl)cc1,–,239,-9.05,3.83,–,–,–
CCCCCCCOC(C)=O,193,-50.2,–,–,–,–,–
Nc1ccc(Cl)cc1[N+](=O)[O-],–,116,–,–,–,–,not readily biodegradable
O=[N+]([O-])c1cc(N(CCO)CCO)ccc1NCCO,–,95.5,–,–,–,–,–
CCCCCC[C@H](C)S,–,–,-0.147,–,–,–,–
CCOC(=O)Nc1ccc2c(c1)N(C(=O)CCN1CCOCC1)c1ccccc1S2,–,156,–,–,–,–,–
O=C(O)c1cccc(C(F)(F)F)c1,238,106,–,–,–,–,–
CC1=C(C(=O)Nc2ccccc2)CCCO1,–,110,–,–,–,–,–
CCC(=O)C(C)(C)C,126,-45,–,–,–,–,–
NCCS,–,98,–,–,–,–,–
Cn1nnc2ccccc21,270,64.5,–,–,–,–,–
COCN(COC)c1nc(N(COC)COC)nc(N(COC)COC)n1,–,–,–,–,–,–,not readily biodegradable
CC(C)(C)CC(=O)Cl,130,–,–,–,–,–,–

Structure (SMILES),boiling point [°C],melting point [°C],log10 vapour pressure (mmHg),log10 Koc (L/kg),log10 Koa,log10 Henry constant (atm·m³/mol),ready biodegradability
Cc1c(C)c(C)c(N)c(C)c1C,278,152,–,–,–,–,–
Clc1ccc(I)cc1,227,57,-1.23,–,–,–,–
O=C(CO)c1ccccc1,–,90,–,–,–,–,–
CCc1ccc(N)cc1,218,-4.8,-0.844,–,–,–,–
CCC1CCC(=O)O1 (stereo unspecified),216,-18,–,–,–,–,–
COC(=O)C(Cl)Cl,143,-51.9,0.654,–,–,–,–
O=C(O)Cc1c[nH]c2ccccc12,–,168,–,–,–,–,–
CCOC(=O)C(Cl)C(=O)OCC,222,–,–,–,–,–,–
CC(C)S,52.5,-130,2.44,–,–,–,–
CC(C)=NNC(N)=S,–,–,–,–,–,–,not readily biodegradable
CCCCC(=O)OC,127,–,1.28,–,–,-3.5,–
NC(=O)OCCCl,–,75.5,–,–,–,–,–
O=Cc1ccccc1C=O,–,56.5,–,–,–,–,–
CCC(C)c1ccccc1 (stereo unspecified),174,-82.7,0.243,–,–,–,–
CC(N)=O,222,81,-1.4,0.7,–,–,readily biodegradable
COc1ccc2c(c1)c(CC(=O)O)c(C)n2C(=O)/C=C/c1ccccc1,–,170,–,–,–,–,–
Cc1ccc(Cl)c(C)c1,184,-32.5,–,–,–,–,–
O=S(=O)(O)c1ccc2ccc(S(=O)(=O)O)cc2c1,–,199,–,–,–,–,–
CCn1ccnc1,208,–,–,–,–,–,–
COc1ccc2c(c1)CCCC2=O,–,78,–,–,–,–,–
C[C@H]1[C@H]2CC[C@H]3[C@@H]4CC=C5C[C@@H](N(C)C)CC[C@]5(C)[C@H]4CC[C@]23CN1C,–,126,–,–,–,–,–
CCOC(=O)c1c[nH]c(=S)[nH]c1=O,–,252,–,–,–,–,–
CC(C)C1CCC(C)(O)CC1 (stereo unspecified),208,–,–,–,–,–,–
Nc1ccc(-c2ccc(N)c(Cl)c2)cc1Cl,368,132,–,4.35,–,–,not readily biodegradable
CCOC(=O)C(C(C)=O)C(C)C (stereo unspecified),201,–,–,–,–,–,–
NS(=O)(=O)c1cccc([N+](=O)[O-])c1,–,167,–,–,–,–,–

Structure (SMILES),boiling point [°C],melting point [°C],log10 vapour pressure (mmHg),log10 Koc (L/kg),log10 Koa,log10 Henry constant (atm·m³/mol),ready biodegradability
CCCOC(=O)C1CCCCC1,216,–,–,–,–,–,–
CCCOC(=O)CC,122,-75.9,1.14,–,–,–,–
FC(F)(F)C(Cl)C(F)(F)F,14.1,-120,–,–,–,–,–
CC(=O)N(O)CCCCCNC(=O)CCC(=O)N(O)CCCCCNC(=O)CCC(=O)N(O)CCCCCN,–,140,–,–,–,–,–
O=C(O)CCCCCCCCCCBr,–,57,–,–,–,–,–
CC(C)(Cl)Br,95,–,–,–,–,–,–
CCN(CC)CC(=O)OCC(=O)[C@@]1(O)CC[C@H]2[C@@H]3CCC4=CC(=O)CC[C@]4(C)[C@H]3[C@@H](O)C[C@@]21C,–,162,–,–,–,–,–
CCCc1cc(C(N)=S)ccn1,–,137,–,–,–,–,–
O=C1C(O)=C(Cl)C(=O)C(O)=C1Cl,–,284,–,–,–,–,–
C=CCCC(=C)C,88.1,-129,–,–,–,–,–
CC(Br)CCCBr (stereo unspecified),–,-34.4,–,–,–,–,–
N#Cc1ccc(C=O)cc1,–,100,–,–,–,–,–
CCCCCCCCCCCCCCCCCCI,383,34,-5.72,–,–,–,–
CN(C)CCO,134,-59,0.502,–,–,–,readily biodegradable
CCCN.Cl,–,161,–,–,–,–,–
COC(=O)C1CCCCC1,183,–,–,–,–,–,–
Cc1onc(-c2ccccc2)c1C(=O)N[C@@H]1C(=O)N2[C@@H]1SC(C)(C)[C@@H]2C(=O)O,–,188,–,–,–,–,–
Oc1ccc(Cl)cc1,220,42.7,-1.05,–,–,–,not readily biodegradable
CCSc1ccc2c(c1)N(CCCN1CCN(C)CC1)c1ccccc1S2,–,63,–,–,–,–,–
CCCCCCCOC(=O)CCCCCCC,290,-10.6,–,–,–,–,–
N#Cc1ccc(F)cc1,189,34.8,–,–,–,–,–
NS(=O)(=O)C(F)(F)C(F)(F)C(F)(F)C(F)(F)C(F)(F)C(F)(F)C(F)(F)C(F)(F)F,–,–,-0.606,–,–,–,–
O=C(Nc1ccc(Cl)cc1)c1cc(Cl)cc(Cl)c1O,–,142,–,–,–,–,–

# Same assay, conditions: fish
Structure (SMILES),log10 BCF,log10 biotransformation half-life (days)
COc1c(Cl)c(Cl)c(Cl)c(Cl)c1Cl,4.16,2.67
Clc1cc(-c2c(Cl)c(Cl)c(Cl)c(Cl)c2Cl)c(Cl)c(Cl)c1Cl,–,2.68
BrCC(CBr)(CBr)CBr,1.94,0.76
CCSC(=O)N1CCCCCC1,1.41,-1.08
Clc1cc(Cl)c(-c2c(Cl)cc(Cl)c(Cl)c2Cl)cc1Cl,–,2.59
O=C(NC(=O)c1c(F)cccc1F)Nc1ccc(Cl)cc1,2.2,–
Nc1ccc(Cl)cc1[N+](=O)[O-],1.04,-0.96
COCN(COC)c1nc(N(COC)COC)nc(N(COC)COC)n1,0.54,–
Nc1ccc(-c2ccc(N)c(Cl)c2)cc1Cl,2.16,-0.13
Oc1ccc(Cl)cc1,1.48,-0.41

# Reference: the OPERA property sets (Mansouri et al. 2018)
